Data: patent publication US11805773B1, “Nanocomposite including water-soluble nano-polymer and mesoporous silica nanoparticles encapsulated with azole derivatives” (KING FAISAL UNIVERSITY, priority 2023, dated 2023)

Compound | melting point
COc1ccc(C2CC(c3ccc(Cl)cc3Cl)=NN2c2nc(-c3ccccc3)cs2)cc1OC (stereo not shown) [1a, 2-(3-(2,4-dichlorophenyl)-5-(3,4-dimethoxyphenyl)-4,5-dihydro-1H-pyrazol-1-yl)-4-phenylthiazole] | 120 to 122 °C
COc1ccc(C2CC(c3ccc(Cl)cc3Cl)=NN2c2nc(-c3ccc(Cl)cc3)cs2)cc1OC (stereo not shown) [1b, 4-(4-chlorophenyl)-2-(3-(2,4-dichlorophenyl)-5-(3,4-dimethoxyphenyl)-4,5-dihydro-1H-pyrazol-1-yl)thiazole] | 158 to 159 °C
COc1ccc(C2CC(c3ccc(Cl)cc3Cl)=NN2c2nc(-c3ccccc3)cs2)cc1 (stereo not shown) [1c, 2-(3-(2,4-dichlorophenyl)-5-(4-methoxyphenyl)-4,5-dihydro-1H-pyrazol-1-yl)-4-phenylthiazole] | 72 to 75 °C
COc1ccc(C2CC(c3ccc(Cl)cc3Cl)=NN2c2nc(-c3ccc(Cl)cc3)cs2)cc1 (stereo not shown) [1d, 4-(4-chlorophenyl)-2-(3-(2,4-dichlorophenyl)-5-(4-methoxyphenyl)-4,5-dihydro-1H-pyrazol-1-yl)thiazole] | 140 to 141 °C
